Reference: US5382525A, “Method of effecting increased performance of diagnostic enzyme reaction systems using noble gases” (American Air Liquide, priority 1992, dated 1995)

How the values were obtained:
[1] = tested on: Alkaline Phosphatase (EC 3.1.3.1); assay: Alkaline Phosphatase [ALP/AP] Sigma Kit No. 245-10 gas run; type: biochemical, Chicken; design: Rate Difference / Yield Difference: unit not given here; conditions: for rate of the alkaline phosphatase-catalyzed reaction (FIGS. 1-3): 10°, 25° and 35° C., saturation with the gas; for Yield Difference / Rate Difference: relative to air
Excerpt: Alkaline Phosphatase [ALP/AP] Sigma Kit. No. 245-10 Gas Run Protocol
Phosphatase, Alkaline P-8008
(Orthophosphoric-monoester phosphohydrolase [alkaline optimum]; EC 3.1.3.1)
From Chicken Intestine 5.1 Units/mg solid (1 g solid) Lot# 115F-3806
SIGMA Diagnostic Kit 245-10 (Procedure No. 245)
PRINCIPLE [drawing 1] The hydrolysis occurs at alkaline pH. The formation of p-nitrophenol can be observed as an increase in absorbance at 405 nm. The rate of increase directly proportional at ALP activity. […]
(§1) The following consists of example results obtained from gas runs. Negative numbers indicate an inhibition of the enzyme activity. Positive numbers indicate an enhancement of the enzyme activity

[2] = tested on: Acid Phosphatase (EC 3.1.3.2); assay: Acid Phosphatase Sigma Kit No. 435-A gas run; type: biochemical, Potato; conditions: for rate of the acid phosphatase-catalyzed reaction (FIG. 4): 10° C., saturation with the gas; for % Rate Difference / % Yield Difference: relative to air
Excerpt: Acid Phosphatase Sigma Kit. No. 435-A Gas Run Protocol
(Orthophosphoric-monoester phosphohydrolase [acid optimum)]; EC 3.1.3.2)
From Potato 0.8 Units/mg solid (1 g solid) Lot# 17F-7285
SIGMA Diagnostic Kit 435-A (Procedure No. 435)
PRINCIPLE [drawing 3] Acid phosphatase [ACP] catalyzes the hydrolysis of α-Naphthyl phosphate to a-Naphthol and inorganic phosphate. α-Naphthol immediately reacts with fast red TR salt to produce a yellow chromophore with an absorbance maximum at 405 nm. The rate of increase in absorbance at 405 nm is directly proportional to ACP activity. […]
as §1

Urease EC 3.5.1.5 = target: T1, Urease EC 3.5.1.5 (Canavalia ensiformis, UniProt P07374); assay: Urea Nitrogen Diagnostic Kit (640) stop-flow gas run; type: biochemical, jack beans; conditions: 37° C.; relative to air
T1 construct: purchased Sigma 640-5; host or cells: jack beans
Excerpt: Urea Nitrogen Diagnostic Kit (640) Protocol For Gas Run
Urea Nitrogen (Sigma Diagnostic Kit, Procedure No. 640)
Sigma No. 640-5 Buffered Urease from jack beans 100 units when prepared according to directions (3.33 units/ml). Sodium azide added as preservative. Store in refrigerator. Note expiration date: JUNE 1993
PRINCIPLE: Urea is hydrolyzed by urease to ammonia and carbon dioxide. [drawing 6] Ammonia then reacts with alkaline hypochlorite and phenol in the presence of a catalyst, sodium nitroprusside [Na2 Fe[CN]5 NO.2H2 O], to form indophenol. The concentration of ammonia is directly proportional to the absorbance of indophenol, which is measured spectrophotometrically at 570 nm. [drawing 7] Note: Ammonia free water (DI H2 O should be ok) is necessary for this procedure, Make sure to rinse everything with DI H2 O before use, If the blank has more than a trace of blue color ammonia contamination should be suspected.
PROCEDURE FOR STOP-FLOW GAS EXPERIMENT
In a 100 cc serum vial place 20 ml Urease soln (Soln A1). Stopper, seal and crimp. Bubble 400 ml of gas through (using the 500 ml gas-tight syringe). Superimpose 100 ml of gas, vial will be under positive pressure.
Sample 0.4 ml Urea Nitrogen Standard Solution 1 from gassed 3 cc vial. Add to the gassed 100 cc serum vial (containing 20 ml Soln A1). Start stop watch, gently swirl vial.
Take 0.5 ml samples every minute. Place the 0.5 ml sample into the corresponding 10 cc vial to stop the reaction. Inject immediately 1 ml Alkaline Hypochlorite Solution followed by 5 ml D.I. H2 O.
Let the 15×10 cc vials sit and develop color for 30 minutes. a 1 wavelength "scan" (see software) should be run: 3 ml per cuvette. Read vs a blank of 3 ml Soln B.
Spectrophotometric study procedure: 37° C.
as §1

[3] = target: T2, Alcohol dehydrogenase EC 1.1.1.1 (Saccharomyces cerevisiae, UniProt P00330); assay: Alcohol [Ethanol] Diagnostic Kit Sigma No. 332-UV gas run; type: biochemical, yeast; conditions: relative to air
T2 construct: purchased Sigma 330-1; host or cells: yeast
T2 sequence (P00330 1-348): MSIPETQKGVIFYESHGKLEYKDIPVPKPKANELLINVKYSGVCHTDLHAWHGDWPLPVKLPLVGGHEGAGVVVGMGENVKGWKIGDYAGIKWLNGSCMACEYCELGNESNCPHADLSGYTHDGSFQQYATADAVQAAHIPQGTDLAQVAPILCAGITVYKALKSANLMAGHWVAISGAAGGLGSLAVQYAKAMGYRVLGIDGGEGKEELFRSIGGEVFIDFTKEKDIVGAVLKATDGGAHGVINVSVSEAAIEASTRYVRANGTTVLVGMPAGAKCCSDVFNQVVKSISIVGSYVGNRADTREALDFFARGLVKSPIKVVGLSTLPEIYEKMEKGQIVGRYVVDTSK
Experimental: Alcohol [Ethanol] Diagnostic Kit Sigma Diagnostic Kit No. 332-UV Gas Run Protocol
SIGMA Diagnostic Kit 332-BT (Procedure No. 332-UV)
The NAD-ADH vials, when reconstituted according to the directions, contain approximately the following concentrations of active ingredients: NAD, 0.6 μmol/ml, alcohol dehydrogenase [yeast], 50 U/ml, and stabilizers. […]
Step 1: Prepare diluted Ethanol Standard Solution by mixing 4.0 ml Glycine Buffer Reagent (332-9) with 0.5 ml Ethanol Standard Solution (330-20). Cap until ready for use. 4 substrate concentrations: […]
Inject 1×3 cc of gas in silicone-sealed cuvettes No 2nd and 3rd 3 cc gas injection: NAD-ADH solution squirts back in the syringes because of foam formation due to bubbling. Store cuvettes overnight in refrigerator (0°-5° C.) under two 3 cc syringes, in the dark. […]
Remove the G1 cuvettes out from the fridge. Bubble 2×3 cc of gas. Place cuvettes (under two 3 cc syringes filled up with the appropriate gas) in cell holder.
Sample diluted Ethanol Standard Solution with 1 cc syringes, pick syringes into silicone, push plungers simultaneously, run timedrives.
as §1

particulate sialidase = conditions: Sandhoff et al 1976; called questionable, highly impure enzymes; cited from earlier work
[4] = independent of oxygen partial pressure; Schreiner; cited from earlier work
[5] = 10 °C, positive = enhancement, negative = inhibition of enzyme activity

T1 sequence (P07374 whole entry, looked up): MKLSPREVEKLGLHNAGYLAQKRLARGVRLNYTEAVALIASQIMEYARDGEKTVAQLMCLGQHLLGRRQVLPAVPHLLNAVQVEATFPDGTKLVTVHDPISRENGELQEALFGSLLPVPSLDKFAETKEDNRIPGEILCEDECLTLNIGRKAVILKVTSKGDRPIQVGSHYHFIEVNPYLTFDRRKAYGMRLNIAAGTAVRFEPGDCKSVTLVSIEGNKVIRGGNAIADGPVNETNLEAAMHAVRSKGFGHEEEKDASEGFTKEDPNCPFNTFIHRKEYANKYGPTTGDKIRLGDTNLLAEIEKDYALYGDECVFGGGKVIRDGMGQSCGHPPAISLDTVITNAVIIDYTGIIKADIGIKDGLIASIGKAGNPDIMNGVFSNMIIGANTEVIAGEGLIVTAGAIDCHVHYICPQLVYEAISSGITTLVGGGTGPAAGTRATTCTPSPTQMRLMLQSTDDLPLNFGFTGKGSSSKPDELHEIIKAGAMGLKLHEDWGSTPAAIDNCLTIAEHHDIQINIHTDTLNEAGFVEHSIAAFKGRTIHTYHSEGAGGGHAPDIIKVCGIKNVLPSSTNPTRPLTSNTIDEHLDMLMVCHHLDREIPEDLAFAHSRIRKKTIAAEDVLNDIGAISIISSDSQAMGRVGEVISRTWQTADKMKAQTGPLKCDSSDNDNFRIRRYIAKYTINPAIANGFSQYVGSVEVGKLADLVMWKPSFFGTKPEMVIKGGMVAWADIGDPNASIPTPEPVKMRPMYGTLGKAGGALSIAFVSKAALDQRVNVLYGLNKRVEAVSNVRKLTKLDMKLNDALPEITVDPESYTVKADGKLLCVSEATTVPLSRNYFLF

| SMILES | rate of the alkaline phosphatase-catalyzed reaction (FIGS. 1-3) [1] | Yield Difference ([1]; 10 °C) | Rate Difference [1, 5] | Rate Difference ([1]; 25 °C) | Yield Difference ([1]; 25 °C) | Rate Difference ([1]; 35 °C) | Yield Difference ([1]; 35 °C) | rate of the acid phosphatase-catalyzed reaction (FIG. 4) [2] | % Rate Difference ([2]; 10 °C) | % Yield Difference ([2]; 10 °C) | % Rate Difference ([2]; 25 °C) | % Yield Difference ([2]; 25 °C) | % Rate Difference ([2]; 35 °C) | % Yield Difference ([2]; 35 °C) | % Rate Difference (Urease EC 3.5.1.5) | % Yield Difference (Urease EC 3.5.1.5) | % Rate Difference ([3]; 0.24% Ethanol, 10° C.) | % Yield Difference ([3]; 0.24% Ethanol, 10° C.) | % Rate Difference ([3]; 0.32% Ethanol, 10° C.) | % Yield Difference ([3]; 0.32% Ethanol, 10° C.) | also measured |
| --- | --- | --- | --- | --- | --- | --- | --- | --- | --- | --- | --- | --- | --- | --- | --- | --- | --- | --- | --- | --- | --- |
| [Ar] [Ar, argon] | improvement of the rate | 33.3 | 33.3 | 3.0 | 3.0 | 30.4 | 30.4 | improvement of the rate | 8.4% | 9.4% | 12.2% | 9.2% | -1.4% | -0.42% | 9.4% | 9.4% | 9.0% | 8.3% | 5.2% | 2.3% | % Rate Difference ([3]; 0.08% Ethanol, 10° C.): 8.8%; % Rate Difference ([3]; 0.24% Ethanol, 25° C.): -9.4%; % Yield Difference ([3]; 0.24% Ethanol, 25° C.): -6.6% |
| [Kr] [Kr, krypton] | improvement of the rate | 1.7 | 1.7 | 9.1 | 9.1 | 4.3 | 4.3 | improvement of the rate | 18.1% | 16.0% | 13.3% | 7.3% | 1.4% | 1.3% | 0.0% | 0.0% | 11.9% | 14.2% | 8.6% | 4.7% | % Rate Difference ([3]; 0.08% Ethanol, 10° C.): 2.9%; % Rate Difference ([3]; 0.24% Ethanol, 25° C.): -9.4%; % Yield Difference ([3]; 0.24% Ethanol, 25° C.): -4.4% |
| N#N [N2, Nitrogen, reference compound] |  | 0 | 0 | 0 | 0 | 0 | 0 |  |  |  |  |  |  |  | 0.0% |  |  |  |  |  |  |
| [Ne] [Ne, neon] |  |  |  |  |  |  |  |  |  |  |  |  |  |  | 3.1% | 3.1% |  |  | 12.1% | 3.9% |  |
| [Xe] [Xe, xenon] | improvement of the rate | 16.7 | 16.7 | 18.2 | 18.2 | 7.3 | 7.3 | improvement of the rate | 42.2% | 39.2% | 21.1% | 14.7% | 5.6% | 4.2% | 9.4% | 9.4% | 7.5% | 10.0% | 15.6% | 10.2% | % Rate Difference ([3]; 0.24% Ethanol, 25° C.): -10.4%; % Yield Difference ([3]; 0.24% Ethanol, 25° C.): -8.0%; effect on activity of particulate sialidase (particulate sialidase): enhance the activity |
| FC(F)(F)C(Cl)Br (centres unmarked) [halothane] |  |  |  |  |  |  |  |  |  |  |  |  |  |  |  |  |  |  |  |  | effect on activity of particulate sialidase (particulate sialidase): enhance the activity |
| [N-]=[N+]=O [nitrous oxide] |  |  |  |  |  |  |  |  |  |  |  |  |  |  |  |  |  |  |  |  | inhibition per atmosphere of added gas [4]: 1.9 % inhibition per atmosphere; effect on activity of particulate sialidase (particulate sialidase): enhance the activity |
